Data from patent US7279497B2, “Benzopyran derivatives substituted with secondary amines including imidazole, their preparation and pharmaceutical compositions containing them” (Korea Research Institute of Chemical Technology, priority 2002, dated 2007).
Marks after values point to notes of the source that are not given here.

Assays:
[1] = system: SPF SD rats; details: rat, in vivo, po;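 further: Six-week-old animals, two per group, followed across an observation period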
[2] = system: A549 implanted mice; experiment: Survival % in A549 implanted mice; format: in vivo; details: for Survival %: 50 mg/Kg
Description: (§1) Nude mice (BALB/c nu/nu, male) were purchased from Charls River Japan, Inc., and housed and treated under SPF (Special Pathogen Free) facilities according to the regulation of NIH (national institutes of health). A549 cells isolated from human non small cell lung cancer (NSCLC) were purchased from ATCC ([…], USA), and maintained as an exponentially growing monolayer in Korea Research Institute of Chemical Technology. Effects of the compounds of present invention on implanted tumor growth were measured by the comparison of tumor sizes, in addition, the changes of body weights and survival % of nude mice were observed.
Survival percents were represented using following mathematical formula 2, where N0 is the number of mice at the first day of administration, and Nn is the number of mice at n days after administration. Survival %=Nn/N0×100 [Mathematical formula 2]

[3] = Changes of body weight in nude mice implanted A549; format: in vivo, nude mice (BALB/c nu/nu); details: 50 mg/Kg
Description: as §1
The effects of the compounds of the formula 1 on changes of body weights were determined. Body weights of nude mice were measured using AND balance at 5 day intervals starting from the date of administration of compounds, and represented as a mean value of treated group […], respectively.

[4] = system: HUVECs (Human umbilical vein endothelial cells); experiment: Inhibitory effects on HUVEC tube formation; format: cell-based; details: for inhibitory effect on HUVEC tube formation: 50 uM; for Tube formation: 50 μM;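 on tube formation: from minus no inhibition up to plus-plus-plus complete inhibition versus vehicle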
Protocol: The Inhibitory effects of the compounds of the formula 1 on angiogenesis were meassured by the vascular tube formation assay of HUVECs (Human umbilical vein endothelial cells), which is one of the major angiogenic steps.
HUVECs were isolated from human umbilical vein, and cultured. HUVECs within passage 5 from confluent cultures were detached, and plated onto a layer of a bFGF (basic fibroblast growth factor)-reduced and polymerized Matrigel. Matrigel cultures were incubated with or without the compounds of formula 1, and the changes of cell morphology were captured through a phase contrast microscope and photographed.

[5] = system: A549 NSCLC; experiment: Inhibition on A549 NSCLC growth in nude mice xenografts; format: in vivo, nude mice (BALB/c nu/nu); details: for Inhibition (%) of tumor volume: 50 mg/Kg; for Tumor volume: 50 mg/Kg i.p. once daily day 1 to day 20
Protocol: Human tumor xenograft experiments were performed to evaluate whether the compounds of the formula 1 inhibit growth of human tumors implanted in nude mice.
as §1
Nude mice had been adjusted to the laboratory for 2-3 weeks after purchase, and all procedures were performed on male mice of 8 weeks of age, within a weight range of 18-20 g.
A549 tumor xenografts were established in the right flank of mice by subcutaneous injection of cells in 3×3×3 mm^3 size of culture. 24 hours after cell implantation, the administration of the compounds was started and which day is defined as day 1. Nude mice were injected intraperitoneally with the compound of example 23 (50 mg/kg) or vehicle (PBS containing 0.5% tween 80) once daily from day 1 to day 20. Tumor volume (V) was assessed by caliper measurement using the mathematical formula 1, where a was the longest diameter across the tumor and b was the corresponding perpendicular short diameter. Volume (mm^3)=a×b^2/2 [Mathematical Formula 1]
Inhibition (%) was calculated as (1−(VT)n/−(VC)n)×100, where (VT)n and (VC)n were the mean tumor volume of treated and control group at n days after administration of the compound. Each group consisted of 8 mice, and statistical significance was represented as student-T test (* p<0.05).

[6] = system: isolated rat aorta; experiment: Vasorelaxation effects on isolated blood vessels (methoxamine induced vasoconstriction); details: rat aorta constricted with methoxamine (3 μM)
Protocol: The following experiment was conducted to examine whether the compounds of the formula 1 have vasorelaxation effects.
Male Sprague-Dawly rats (350-450 g, obtained from the Experimental Animal Team of the Korea Research Institute of Chemical Technology) were knocked unconscious by hitting the occipital region, sacrificed by cervical dislocation, and underwent thoracotomy. After being quickly removed, the thoracic aorta was deprived of the adipose tissue and cut into aortic rings of 3 mm width. The aorta was lightly rubbed with a modified Krebs Henseleit buffer (Physiological Salt Solution, PSS) soaked cotton club to remove the inner epithelial layer therefrom. While being suspended in an organ bath containing a physiological buffer, the vascular tissue was allowed to equilibrate under a resting tension of 2 g and then, stand for 1 hour at 37° C. for stabilization with a supply of a carbogen consisting of 95% O2-5% CO2.
Thereafter, the vascular tissue was constricted with 10^−5 M phenylephrine and washed several times with PSS and this procedure was repeated again to ensure the stable reactivity of vascular smooth muscle to repetitive constriction/dilatation.
In addition, 3×10^−6 M methoxamine was used to induce an intensive constriction in the vascular smooth muscle. When the vasoconstriction induced by the methoxamine reached and maintained a maximum, test compounds and controls were cumulatively added to the organ baths in concentrations of 1, 3, 10 and 30 μM so as to induce vasodilatation. Cromakalim, BMS-180448, and BMS-191095 were used as the controls.
Following the addition of test compounds, the change in the maximal constriction induced by methoxamine was calculated to plot a concentration-relaxation response curve. Through a linear regression analysis, IC50, the drug concentration at which the vascular tissue is 50% dilated, was obtained for each compound.

In the case of `COC(OC)[C@]1(C)Oc2ccc(N)cc2[C@H](N(Cc2ncc[nH]2)c2ccc(Cl)cc2)[C@H]1O` [Example 23, (2R,3R,4S)-6-amino-3,4-dihydro-2-dimethoxymethyl-3-hydroxy-2-methyl-4-[N-(4-chlorophenyl)-N-(1H-imidazol-2-ylmethyl)amino]-2H-1-benzopyran], the “clinical symptoms, body weight and mortality” value (“clinical symptoms” for short) [1] is reported as “no significant changes”, the Survival % ([2]; 1 day) is reported as 100% and the Survival % ([2]; 5 days) is reported as 100%. The Survival % ([2]; 15 days) was 100%, the Survival % ([2]; 20 days) was 100% and the survival rate ([2]; table 6) was 100%. The “retardation or loss of body weight gain” value [3] was “not observed”, the Body weight ([3]; 1 day) was 22.30 g and the Body weight ([3]; 14 days) was 25.42 g. The Body weight ([3]; 25 days) was 26.17 g, the Body weight ([3]; 35 days) was 27.10 g and the “inhibitory effect on HUVEC tube formation” value (“inhibitory effect” below) [4] was “didn't show any tube like structures”. For the same compound, the Tube formation [4] was “+++”, the “Inhibition (%) of tumor volume” value ([5]; 25 days) was “(40%)” and the Tumor volume ([5]; 25 days) was 92.2 mm^3. For the same compound, the “Inhibition (%) of tumor volume” value ([5]; 35 days) was “(39%)”, the Tumor volume ([5]; 35 days) was 186.8 mm^3 and the “Inhibition (%) of tumor volume” value ([5]; 45 days) was “(50%)”. The Tumor volume ([5]; 45 days) was 244.3* mm^3, the “Inhibition (%) of tumor volume” value ([5]; 65 days) was “(52%)” and the Tumor volume ([5]; 65 days) was 494.8* mm^3. For the same compound, the “Inhibition of A549 NSCLC growth” value ([5]; from 45 days to 61 days after implantation) was 50-52%.

With `COC(OC)[C@@]1(C)Oc2ccc([N+](=O)[O-])cc2[C@@H](N(Cc2ncc[nH]2)c2ccc(Br)cc2)[C@@H]1O` [Example 8, (2S,3S,4R)-3,4-dihydro-2-dimethoxymethyl-3-hydroxy-2-methyl-6-nitro-4-[N-(4-bromophenyl)-N-(1H-imidazol-2-ylmethyl)amino]-2H-1-benzopyran] the “clinical symptoms” value [1] was “no significant changes” and the Tube formation [4] was “+”.

With `COC(OC)[C@]1(C)Oc2ccc([N+](=O)[O-])cc2[C@H](N(Cc2ncc[nH]2)c2ccc(Cl)cc2)[C@H]1O` [Example 3, (2R,3R,4S)-3,4-dihydro-2-dimethoxymethyl-3-hydroxy-2-methyl-6-nitro-4-[N-(4-chlorophenyl)-N-(1H-imidazol-2-ylmethyl)amino]-2H-1-benzopyran] the “clinical symptoms” value [1] was “no significant changes”, the “inhibitory effect” value [4] was “strongly inhibited” and the Tube formation [4] was “++”.

For `CC1(C)Oc2ccc(C#N)cc2C(N2CCCC2=O)C1O` (centres unmarked) [Cromakalim], the IC50 [6] was 67 nM.

For `COC(OC)[C@]1(C)Oc2ccc([N+](=O)[O-])cc2[C@H](N(Cc2ncc[nH]2)c2cccc(C)c2C)[C@H]1O` [Example 12, (2R,3R,4S)-3,4-dihydro-2-dimethoxymethyl-3-hydroxy-2-methyl-6-nitro-4-[N-(2,3-dimethylphenyl)-N-(1H-imidazol-2-ylmethyl)amino]-2H-1-benzopyran], the “clinical symptoms” value [1] was “no significant changes” and the Tube formation [4] was “+”.

With `COC(OC)[C@]1(C)Oc2ccc(N)cc2[C@H](N(Cc2ncc[nH]2)c2ccc(OC(F)(F)F)cc2)[C@H]1O` [Example 26, (2R,3R,4S)-6-amino-3,4-dihydro-2-dimethoxymethyl-3-hydroxy-2-methyl-4-[N-(4-trifluoromethoxyphenyl)-N-(1H-imidazol-2-ylmethyl)amino]-2H-1-benzopyran] the “clinical symptoms” value [1] was “no significant changes” and the Tube formation [4] was “+”.

With `COC(OC)[C@@]1(C)Oc2ccc([N+](=O)[O-])cc2[C@@H](N(Cc2ncc[nH]2)c2ccc(C(F)(F)F)cc2)[C@@H]1O` [Example 5, (2S,3S,4R)-3,4-dihydro-2-dimethoxymethyl-3-hydroxy-2-methyl-6-nitro-4-[N-(4-trifluoromethylphenyl)-N-(1H-imidazol-2-ylmethyl)amino]-2H-1-benzopyran] the “clinical symptoms” value [1] was “no significant changes”, the “inhibitory effect” value [4] was “strongly inhibited” and the Tube formation [4] was “++”.

In the case of `CC1(C)Oc2ccc(C#N)cc2C(N(Cc2ncc[nH]2)c2ccc(Cl)cc2)[C@H]1O` (some centres unmarked) [BMS-191095], the IC50 [6] is reported as 2140 nM.

In the case of `COC(OC)[C@]1(C)Oc2ccc(N)cc2[C@H](N(Cc2ncc[nH]2)c2cccc(C)c2C)[C@H]1O` [Example 27, (2R,3R,4S)-6-amino-3,4-dihydro-2-dimethoxymethyl-3-hydroxy-2-methyl-4-[N-(2,3-dimethylphenyl)-N-(1H-imidazol-2-ylmethyl)amino]-2H-1-benzopyran], the “clinical symptoms” value [1] is reported as “no significant changes” and the Tube formation [4] is reported as “+/−”.

In the case of `COC(OC)[C@@]1(C)Oc2ccc([N+](=O)[O-])cc2[C@@H](N(Cc2ncc[nH]2)c2ccccc2C(C)C)[C@@H]1O` [Example 10, (2S,3S,4R)-3,4-dihydro-2-dimethoxymethyl-3-hydroxy-2-methyl-6-nitro-4-[N-(2-isopropylphenyl)-N-(1H-imidazol-2-ylmethyl)amino]-2H-1-benzopyran], the “clinical symptoms” value [1] is reported as “no significant changes”, the “inhibitory effect” value [4] is reported as “strongly inhibited” and the Tube formation [4] is reported as “++”.
